Assays:
Test in all cases: relative viability (nuclei count vs DMSO), 5 days (fraction); higher = more cells survive
[1] = compound: C1=CC=C2C(=C1)C=CC(=C2SSC3=C(C=CC4=CC=CC=C43)O)O [IPA-3] + CC1(C)CCC(c2ccc(Cl)cc2)=C(CN2CCN(c3ccc(C(=O)NS(=O)(=O)c4ccc(N[C@H](CCN5CCOCC5)CSc5ccccc5)c(S(=O)(=O)C(F)(F)F)c4)cc3)CC2)C1 [Navitoclax] (partner 0.5 µM)
Outline: (§1)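 Dosing by pin tool came one day after lung cancer cell lines were seeded in 1536-well plates, using either one drug or a fixed anchor-drug dose plus five library-drug doses (not always all listed) in √10 steps. After 5 days, nuclei were counted on 4× images. Relative viability is treated-well nuclei count divided by vehicle-well nuclei count, and values are medians of duplicate plates.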

[2] = compound: Cc1ccc(-n2nc(C(C)(C)C)cc2NC(=O)Nc2ccc(OCCN3CCOCC3)c3ccccc23)cc1 [Doramapimod] + CCNC(=O)c1noc(-c2cc(C(C)C)c(O)cc2O)c1-c1ccc(CN2CCOCC2)cc1 [Luminespib] (partner 0.01 µM)
Outline: as §1

[3] = compound: C1=CC=C2C(=C1)C=CC(=C2SSC3=C(C=CC4=CC=CC=C43)O)O [IPA-3] + N=C(N)NC(=N)NCCc1ccccc1 [Phenformin] (partner 250 µM)
Outline: as §1

[4] = compound: Cc1ccc(-n2nc(C(C)(C)C)cc2NC(=O)Nc2ccc(OCCN3CCOCC3)c3ccccc23)cc1 [Doramapimod] + CC(=O)Nc1cccc(-n2c(=O)n(C3CC3)c(=O)c3c(Nc4ccc(I)cc4F)n(C)c(=O)c(C)c32)c1 [Trametinib] (partner 0.02 µM)
Outline: as §1

EPLC-272H
relative viability ([1]; first compound 0.2 µM): 1.25
relative viability ([1]; first compound 0.6325 µM): 1.4
relative viability ([1]; first compound 2 µM): 1.16
relative viability ([1]; first compound 6.325 µM): 1.21
relative viability ([1]; first compound 20 µM): 1.18
relative viability ([2]; first compound 0.02 µM): 0.368
relative viability ([2]; first compound 0.06325 µM): 0.296
relative viability ([2]; first compound 0.2 µM): 0.741
relative viability ([2]; first compound 0.6325 µM): 0.494
relative viability ([2]; first compound 2 µM): 0.187
relative viability ([3]; first compound 0.2 µM): 0.306
relative viability ([3]; first compound 0.6325 µM): 0.27
relative viability ([3]; first compound 2 µM): 0.346
relative viability ([3]; first compound 6.325 µM): 0.405
relative viability ([3]; first compound 20 µM): 0.397
relative viability ([4]; first compound 0.02 µM): 0.25
relative viability ([4]; first compound 0.06325 µM): 0.294
relative viability ([4]; first compound 0.2 µM): 0.302
relative viability ([4]; first compound 2 µM): 0.291

ChaGo-K-1
relative viability ([1]; first compound 0.2 µM): 1.07
relative viability ([1]; first compound 0.6325 µM): 1
relative viability ([1]; first compound 2 µM): 0.836
relative viability ([1]; first compound 6.325 µM): 1.06
relative viability ([1]; first compound 20 µM): 1.17
relative viability ([2]; first compound 0.02 µM): 0.594
relative viability ([2]; first compound 0.06325 µM): 0.49
relative viability ([2]; first compound 0.2 µM): 0.595
relative viability ([2]; first compound 0.6325 µM): 0.52
relative viability ([2]; first compound 2 µM): 0.541
relative viability ([3]; first compound 0.2 µM): 0.614
relative viability ([3]; first compound 0.6325 µM): 0.494
relative viability ([3]; first compound 2 µM): 0.494
relative viability ([3]; first compound 6.325 µM): 0.494
relative viability ([3]; first compound 20 µM): 0.605
relative viability ([4]; first compound 0.02 µM): 0.753
relative viability ([4]; first compound 0.06325 µM): 0.811
relative viability ([4]; first compound 0.2 µM): 0.851
relative viability ([4]; first compound 0.6325 µM): 0.844
relative viability ([4]; first compound 2 µM): 0.725

NCI-H1651
relative viability ([1]; first compound 0.2 µM): 1.06
relative viability ([1]; first compound 2 µM): 0.998
relative viability ([1]; first compound 6.325 µM): 1.1
relative viability ([1]; first compound 20 µM): 1.19
relative viability ([2]; first compound 0.02 µM): 0.76
relative viability ([2]; first compound 0.06325 µM): 0.863
relative viability ([2]; first compound 0.2 µM): 0.87
relative viability ([2]; first compound 0.6325 µM): 0.93
relative viability ([2]; first compound 2 µM): 0.758
relative viability ([3]; first compound 0.2 µM): 0.341
relative viability ([3]; first compound 0.6325 µM): 0.317
relative viability ([3]; first compound 2 µM): 0.364
relative viability ([3]; first compound 6.325 µM): 0.339
relative viability ([3]; first compound 20 µM): 0.31
relative viability ([4]; first compound 0.02 µM): 0.811
relative viability ([4]; first compound 0.06325 µM): 0.865
relative viability ([4]; first compound 0.2 µM): 0.823
relative viability ([4]; first compound 0.6325 µM): 0.792
relative viability ([4]; first compound 2 µM): 0.825

HCC-44
relative viability ([1]; first compound 0.2 µM): 1.11
relative viability ([1]; first compound 0.6325 µM): 0.969
relative viability ([1]; first compound 2 µM): 0.977
relative viability ([1]; first compound 6.325 µM): 1
relative viability ([1]; first compound 20 µM): 0.942
relative viability ([2]; first compound 0.02 µM): 1.06
relative viability ([2]; first compound 0.06325 µM): 1.05
relative viability ([2]; first compound 0.2 µM): 1
relative viability ([2]; first compound 0.6325 µM): 1.24
relative viability ([2]; first compound 2 µM): 0.983
relative viability ([3]; first compound 0.2 µM): 0.232
relative viability ([3]; first compound 0.6325 µM): 0.245
relative viability ([3]; first compound 2 µM): 0.176
relative viability ([3]; first compound 6.325 µM): 0.234
relative viability ([3]; first compound 20 µM): 0.184
relative viability ([4]; first compound 0.02 µM): 1.08
relative viability ([4]; first compound 0.06325 µM): 1.2
relative viability ([4]; first compound 0.2 µM): 1.11
relative viability ([4]; first compound 0.6325 µM): 1.18
relative viability ([4]; first compound 2 µM): 1.06

SW 1573
relative viability ([1]; first compound 0.2 µM): 0.99
relative viability ([1]; first compound 0.6325 µM): 0.67
relative viability ([1]; first compound 2 µM): 1.21
relative viability ([1]; first compound 6.325 µM): 1.09
relative viability ([1]; first compound 20 µM): 1.13
relative viability ([2]; first compound 0.02 µM): 0.235
relative viability ([2]; first compound 0.06325 µM): 0.181
relative viability ([2]; first compound 0.2 µM): 0.207
relative viability ([2]; first compound 0.6325 µM): 0.692
relative viability ([2]; first compound 2 µM): 0.185
relative viability ([3]; first compound 0.2 µM): 0.465
relative viability ([3]; first compound 0.6325 µM): 0.35
relative viability ([3]; first compound 2 µM): 0.401
relative viability ([3]; first compound 6.325 µM): 0.342
relative viability ([3]; first compound 20 µM): 0.17
relative viability ([4]; first compound 0.02 µM): 0.524
relative viability ([4]; first compound 0.06325 µM): 0.429
relative viability ([4]; first compound 0.2 µM): 0.451
relative viability ([4]; first compound 0.6325 µM): 0.452
relative viability ([4]; first compound 2 µM): 0.514

PC-3 [JPC-3]
relative viability ([1]; first compound 0.2 µM): 0.813
relative viability ([1]; first compound 0.6325 µM): 0.691
relative viability ([1]; first compound 2 µM): 0.823
relative viability ([1]; first compound 6.325 µM): 0.803
relative viability ([1]; first compound 20 µM): 0.842
relative viability ([2]; first compound 0.02 µM): 0.736
relative viability ([2]; first compound 0.06325 µM): 0.656
relative viability ([2]; first compound 0.2 µM): 0.694
relative viability ([2]; first compound 0.6325 µM): 0.768
relative viability ([2]; first compound 2 µM): 0.671
relative viability ([3]; first compound 0.2 µM): 0.462
relative viability ([3]; first compound 0.6325 µM): 0.47
relative viability ([3]; first compound 2 µM): 0.495
relative viability ([3]; first compound 6.325 µM): 0.499
relative viability ([3]; first compound 20 µM): 0.489
relative viability ([4]; first compound 0.02 µM): 0.849
relative viability ([4]; first compound 0.06325 µM): 0.726
relative viability ([4]; first compound 0.2 µM): 0.748
relative viability ([4]; first compound 0.6325 µM): 0.839
relative viability ([4]; first compound 2 µM): 0.845

LOU-NH91
relative viability ([1]; first compound 0.2 µM): 0.705
relative viability ([1]; first compound 0.6325 µM): 0.67
relative viability ([1]; first compound 2 µM): 0.744
relative viability ([1]; first compound 6.325 µM): 0.67
relative viability ([1]; first compound 20 µM): 0.868
relative viability ([2]; first compound 0.02 µM): 0.408
relative viability ([2]; first compound 0.06325 µM): 0.324
relative viability ([2]; first compound 0.2 µM): 0.28
relative viability ([2]; first compound 0.6325 µM): 0.315
relative viability ([2]; first compound 2 µM): 0.282
relative viability ([3]; first compound 0.2 µM): 0.793
relative viability ([3]; first compound 0.6325 µM): 0.666
relative viability ([3]; first compound 2 µM): 0.721
relative viability ([3]; first compound 6.325 µM): 0.677
relative viability ([3]; first compound 20 µM): 0.954
relative viability ([4]; first compound 0.02 µM): 0.802
relative viability ([4]; first compound 0.06325 µM): 0.771
relative viability ([4]; first compound 0.2 µM): 0.761
relative viability ([4]; first compound 0.6325 µM): 0.767
relative viability ([4]; first compound 2 µM): 0.678

PC-14
relative viability ([1]; first compound 0.2 µM): 1.09
relative viability ([1]; first compound 0.6325 µM): 1.03
relative viability ([1]; first compound 2 µM): 0.994
relative viability ([1]; first compound 6.325 µM): 0.988
relative viability ([1]; first compound 20 µM): 0.974
relative viability ([2]; first compound 0.02 µM): 0.146
relative viability ([2]; first compound 0.06325 µM): 0.196
relative viability ([2]; first compound 0.2 µM): 0.18
relative viability ([2]; first compound 0.6325 µM): 0.159
relative viability ([2]; first compound 2 µM): 0.152
relative viability ([3]; first compound 0.2 µM): 0.614
relative viability ([3]; first compound 0.6325 µM): 0.521
relative viability ([3]; first compound 2 µM): 0.572
relative viability ([3]; first compound 6.325 µM): 0.497
relative viability ([3]; first compound 20 µM): 0.801
relative viability ([4]; first compound 0.02 µM): 0.756
relative viability ([4]; first compound 0.06325 µM): 0.864
relative viability ([4]; first compound 0.2 µM): 0.782
relative viability ([4]; first compound 0.6325 µM): 0.856
relative viability ([4]; first compound 2 µM): 0.619

Reference: the supplement of paper PMC10307832
